Usually IC50 stands for the concentration needed to halve the response being measured. Lower therefore signals inhibition by little substance.

Our source for the IC50 values is patent publication US11802111B2, “Cyclobutyl amide monoacylglycerol lipase modulators” (Janssen Pharmaceutica NV, priority 2020, dated 2023).

Sequence of human MGL from HeLa cells (Q99685 whole entry): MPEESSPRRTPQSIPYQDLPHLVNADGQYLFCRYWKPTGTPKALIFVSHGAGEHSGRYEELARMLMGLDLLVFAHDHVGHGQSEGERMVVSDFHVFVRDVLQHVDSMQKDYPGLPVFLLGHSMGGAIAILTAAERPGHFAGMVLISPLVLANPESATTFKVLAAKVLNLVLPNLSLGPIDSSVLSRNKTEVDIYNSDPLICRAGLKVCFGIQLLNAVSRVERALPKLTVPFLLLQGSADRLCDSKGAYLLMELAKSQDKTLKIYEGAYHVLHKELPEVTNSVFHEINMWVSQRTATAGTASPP

The target in the assay is human MGL from HeLa cells (Homo sapiens (Human), UniProt Q99685). The experiment in a line: MGL in vitro activity assay ([glycerol-1,3-3H]-oleoyl glycerol hydrolysis, activated carbon filtration). It is filed as biochemical. To be noted: 300 nM [Glycerol-1,3-3H]-oleoyl glycerol, one hour. Summed up:
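Activity measured as tritium in the flow-through after activated carbon filtration of a 1 h reaction containing 300 nM 3H-oleoyl glycerol, compound and HeLa-derived human MGL. Compounds screened at 10 μM; IC50 series start at an empirically chosen highest concentration.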
`CC(C)Oc1nc(CC2CC3(C2)CN(C(=O)[C@H]2C[C@@](C)(O)C2)C3)ccc1C(F)(F)F` [Example 282, ((1s,3s)-3-Hydroxy-3-methylcyclobutyl)(6-((6-isopropoxy-5-(trifluoromethyl)pyridin-2-yl)methyl)-2-azaspiro[3.3]heptan-2-yl)methanone] displayed a half-inhibitory concentration (IC50) of 1 nM. Regarding `Cn1nc(CC2CC3(C2)CN(C(=O)[C@H]2C[C@@](C)(O)C2)C3)cc1C(F)(F)F` [Example 283, ((1s,3s)-3-Hydroxy-3-methylcyclobutyl)(6-((1-methyl-5-(trifluoromethyl)-1H-pyrazol-3-yl)methyl)-2-azaspiro[3.3]heptan-2-yl)methanone], the concentration for half-maximal inhibition (IC50) stood at 116 nM. Next, `C[C@]1(O)C[C@@H](C(=O)N2CC3(CC(Cc4ccc5ccnn5c4)C3)C2)C1` [Example 284, ((1s,3s)-3-Hydroxy-3-methylcyclobutyl)(6-(pyrazolo[1,5-c]pyridin-6-ylmethyl)-2-azaspiro[3.3]heptan-2-yl)methanone]: 122 nM. `C[C@]1(O)C[C@@H](C(=O)N2CC3(CC(Cc4cccc5ccnn45)C3)C2)C1` [Example 285, ((1s,3s)-3-Hydroxy-3-methylcyclobutyl)(6-(pyrazolo[1,5-c]pyridin-7-ylmethyl)-2-azaspiro[3.3]heptan-2-yl)methanone]: half-maximal inhibition (IC50) required 47 nM. `C[C@]1(O)C[C@@H](C(=O)N2CC3(CC(Cn4ccc5cccnc54)C3)C2)C1` [Example 286, (6-((1H-Pyrrolo[2,3-b]pyridin-1-yl)methyl)-2-azaspiro[3.3]heptan-2-yl)((1s,3s)-3-hydroxy-3-methylcyclobutyl)methanone] showed an IC50 of 90 nM.

`Cc1cc2cccnc2n1CC1CC2(C1)CN(C(=O)[C@H]1C[C@@](C)(O)C1)C2` [Example 287, ((1s,3s)-3-Hydroxy-3-methylcyclobutyl)(6-((2-methyl-1H-pyrrolo[2,3-b]pyridin-1-yl)methyl)-2-azaspiro[3.3]heptan-2-yl)methanone] had an IC50 of 67 nM. As to `Cc1ccc2ccn(CC3CC4(C3)CN(C(=O)[C@H]3C[C@@](C)(O)C3)C4)c2n1` [Example 288, ((1s,3s)-3-Hydroxy-3-methylcyclobutyl)(6-((6-methyl-1H-pyrrolo[2,3-b]pyridin-1-yl)methyl)-2-azaspiro[3.3]heptan-2-yl)methanone], the midpoint of inhibition, the IC50, lay at 26 nM. `CC(C)n1ccc2ccc(CC3CC4(C3)CN(C(=O)C3CC(C)(O)C3)C4)nc21` (stereo not drawn) [Example 289, ((1s,3s)-3-Hydroxy-3-methylcyclobutyl)(6-((1-isopropyl-1H-pyrrolo[2,3-b]pyridin-6-yl)methyl)-2-azaspiro[3.3]heptan-2-yl)methanone]: the 50% inhibitory concentration (IC50) came out at 8.2 nM.

Take `CC(C)c1ccc2ccn(CC3CC4(C3)CN(C(=O)[C@H]3C[C@@](C)(O)C3)C4)c2n1` [Example 290, ((1s,3s)-3-Hydroxy-3-methylcyclobutyl)(6-((6-isopropyl-1H-pyrrolo[2,3-b]pyridin-1-yl)methyl)-2-azaspiro[3.3]heptan-2-yl)methanone]: the IC50 turned out to be 16 nM.

For `Cc1cn(C)c2nc(CC3CC4(C3)CN(C(=O)[C@H]3C[C@@](C)(O)C3)C4)ccc12` [Example 291, (6-((1,3-Dimethyl-1H-pyrrolo[2,3-b]pyridin-6-yl)methyl)-2-azaspiro[3.3]heptan-2-yl)((1s,3s)-3-hydroxy-3-methylcyclobutyl)methanone], 3.8 nM corresponded to half-maximal inhibition (IC50). The compound `Cc1cc2ccc(CC3CC4(C3)CN(C(=O)[C@H]3C[C@@](C)(O)C3)C4)nc2n1C` [Example 292, (6-((1,2-Dimethyl-1H-pyrrolo[2,3-b]pyridin-6-yl)methyl)-2-azaspiro[3.3]heptan-2-yl)((1s,3s)-3-hydroxy-3-methylcyclobutyl)methanone] displayed an IC50 of 19 nM. Next, `Cn1cc(F)c2ccc(CC3CC4(C3)CN(C(=O)[C@H]3C[C@@](C)(O)C3)C4)nc21` [Example 293, (6-((3-Fluoro-1-methyl-1H-pyrrolo[2,3-b]pyridin-6-yl)methyl)-2-azaspiro[3.3]heptan-2-yl)((1s,3s)-3-hydroxy-3-methylcyclobutyl)methanone]: 10 nM. Next, `C[C@]1(O)C[C@@H](C(=O)N2CC3(CC(Cn4c(C(F)(F)F)cc5cccnc54)C3)C2)C1` [Example 294, ((1s,3s)-3-Hydroxy-3-methylcyclobutyl)(6-((2-(trifluoromethyl)-1H-pyrrolo[2,3-b]pyridin-1-yl)methyl)-2-azaspiro[3.3]heptan-2-yl)methanone]: 10 nM; `C[C@]1(O)C[C@@H](C(=O)N2CC3(CC(Cn4ccc5ccc(C(F)(F)F)nc54)C3)C2)C1` [Example 295, ((1s,3s)-3-Hydroxy-3-methylcyclobutyl)(6-((6-(trifluoromethyl)-1H-pyrrolo[2,3-b]pyridin-1-yl)methyl)-2-azaspiro[3.3]heptan-2-yl)methanone]: 20 nM. Next, `Cn1cc(C(F)(F)F)c2ccc(CC3CC4(C3)CN(C(=O)[C@H]3C[C@@](C)(O)C3)C4)nc21` [Example 296, ((1s,3s)-3-Hydroxy-3-methylcyclobutyl)(6-((1-methyl-3-(trifluoromethyl)-1H-pyrrolo[2,3-b]pyridin-6-yl)methyl)-2-azaspiro[3.3]heptan-2-yl)methanone]: 0.29 nM; `C[C@]1(O)C[C@@H](C(=O)N2CC3(CC(Cc4ccc5ccn(CC(F)(F)F)c5n4)C3)C2)C1` [Example 297, ((1s,3s)-3-Hydroxy-3-methylcyclobutyl)(6-((1-(2,2,2-trifluoroethyl)-1H-pyrrolo[2,3-b]pyridin-6-yl)methyl)-2-azaspiro[3.3]heptan-2-yl)methanone]: 21 nM. On to `Cn1ccc2cnc(CC3CC4(C3)CN(C(=O)[C@H]3C[C@@](C)(O)C3)C4)cc21` [Example 298, ((1s,3s)-3-Hydroxy-3-methylcyclobutyl)(6-((1-methyl-1H-pyrrolo[3,2-c]pyridin-6-yl)methyl)-2-azaspiro[3.3]heptan-2-yl)methanone], for which the concentration for half-maximal inhibition (IC50) is 775 nM. Next, `Cn1ncc2cccc(CC3CC4(C3)CN(C(=O)[C@H]3C[C@@](C)(O)C3)C4)c21` [Example 299, ((1s,3s)-3-Hydroxy-3-methylcyclobutyl)(6-((1-methyl-1H-indazol-7-yl)methyl)-2-azaspiro[3.3]heptan-2-yl)methanone]: 70 nM; `Cc1cc(CC2CC3(C2)CN(C(=O)[C@H]2C[C@@](C)(O)C2)C3)cc2c1cnn2C` [Example 300, (6-((1,4-Dimethyl-1H-indazol-6-yl)methyl)-2-azaspiro[3.3]heptan-2-yl)((1s,3s)-3-hydroxy-3-methylcyclobutyl)methanone]: 20 nM; `Cc1cc2cnn(C)c2cc1CC1CC2(C1)CN(C(=O)[C@H]1C[C@@](C)(O)C1)C2` [Example 301, (6-((1,5-Dimethyl-1H-indazol-6-yl)methyl)-2-azaspiro[3.3]heptan-2-yl)((1s,3s)-3-hydroxy-3-methylcyclobutyl)methanone]: 36 nM. Next, `Cc1nn(C)c2cc(CC3CC4(C3)CN(C(=O)[C@H]3C[C@@](C)(O)C3)C4)ccc12` [Example 302, (6-((1,3-Dimethyl-1H-indazol-6-yl)methyl)-2-azaspiro[3.3]heptan-2-yl)((1s,3s)-3-hydroxy-3-methylcyclobutyl)methanone]: 21 nM.
